The text below walks through data of US8603537B2, “Prasugrel containing quickly released stable oral pharmaceutical compositions” (Egis Pharmaceuticals PLC, priority 2012, dated 2013).

Structures can show the parent of a compound that is named as a salt.

The conditions of series [1]: EP 2415 774; cited from earlier work.
The subject of series [2] is platelet aggregation. The conditions noted are these: administered in the same dose, EP 1 298 132 B1; cited from earlier work.
The nature of series [3]: Solubility of prasugrel base and prasugrel HCl at different pH values. It counts as physicochemical. From the text: According to the examples of WO 2008/073759 prasugrel containing pharmaceutical compositions are stabilized by storing the tablets in air-and waterproof packaging. According to WO 2006/135605 the decomposition of prasugrel containing compositions can be reduced in air- and moisture-proof blister filled with inert gas. […] This fact is substantiated by the following Table. It can be seen from the above Table that the solubility of the hydrochloric acid salt of prasugrel is much higher than that of the prasugrel base even in the pH range between 4.5 and 6.8

A short description of series [4]: Storage stability of prasugrel base, related substances by HPLC. The format is physicochemical. The source says:
Contrary to the teaching of WO 2011/098536a stable product of appropriate bioavailability is obtained.

Setting [5] is: 25 ± 2° C. 60 ± 5% RH, 2 months.
[6] abbreviates: 25 ± 2° C. 60 ± 5% RH, 3 months.
Where [7] appears, read: 25 ± 2° C. 60 ± 5% RH, 6 months.
Where [8] appears, read: 40 ± 2° C. 75 ± 5% RH, 2 months.
Where [9] appears, read: 40 ± 2° C. 75 ± 5% RH, 3 months.
Setting [10] is: 40 ± 2° C. 75 ± 5% RH, 6 months.

For `CC(=O)Oc1cc2c(s1)CCN(C(C(=O)C1CC1)c1ccccc1F)C2` (centres unmarked) [hydrogen bromide salt], the “Solubility in 0.1N hydrochloric acid compared with the hydrochloric acid salt” value in series [1] was “more readily soluble”.
With `CC(=O)Oc1cc2c(s1)CCN(C(C(=O)C1CC1)c1ccccc1F)C2` (centres unmarked) [prasugrel HCl], the “Platelet aggregation inhibitory effect compared with the base” value in series [2] is recorded as “almost twice higher”. The Solubility in series [3] (pH 1) worked out at 7.8 g/100 ml; in series [3] (pH 4.5), 0.032 g/100 ml; in series [3] (pH 6.8), 0.007 g/100 ml.
For the molecule `CC(=O)Oc1cc2c(s1)CCN(C(C(=O)C1CC1)c1ccccc1F)C2` (centres unmarked) [prasugrel base, 5-/2-cyclopropyl-1-(2-fluoro-phenyl)-2-oxoethyl/-4,5,6,7-tetrahydrothieno/3.2-c/-pyridine-2-yl-acetate], the Solubility in series [3] (Water) is listed as 0.0009 g/100 ml; in series [3] (pH 1), 2.8 g/100 ml; in series [3] (pH 4.5), 0.0035 g/100 ml; in series [3] (pH 6.8), 0.001 g/100 ml. Further, the “Related substances by HPLC: Any identified impurity, each” value in series [4] (25 ± 2° C. 60 ± 5% RH, 1 month) was 0.05%; in series [4] (setting [5]), 0.07%; in series [4] (setting [6]), under 0.05%; in series [4] (setting [7]), under 0.05%; in series [4] (25 ± 2° C. 60 ± 5% RH, Initial), under 0.05%; in series [4] (40 ± 2° C. 75 ± 5% RH, 1 month), under 0.05%. Further, the “Related substances by HPLC: Any identified impurity, each” value in series [4] (setting [8]) is 0.05%; in series [4] (setting [9]), under 0.05%; in series [4] (setting [10]), under 0.05%; in series [4] (40 ± 2° C. 75 ± 5% RH, Initial) it was under 0.05%. For the same molecule, the “Related substances by HPLC: Any unidentified impurity” value in series [4] (25 ± 2° C. 60 ± 5% RH, 1 month) is listed as under 0.05%; in series [4] (setting [5]), under 0.05%; in series [4] (setting [6]), under 0.05%; in series [4] (setting [7]), under 0.05%; in series [4] (25 ± 2° C. 60 ± 5% RH, Initial) it was under 0.05%; in series [4] (40 ± 2° C. 75 ± 5% RH, 1 month), under 0.05%. For the same molecule, the “Related substances by HPLC: Any unidentified impurity” value is listed as under 0.05% in series [4] (setting [8]); under 0.05% in series [4] (setting [9]); under 0.05% in series [4] (setting [10]); under 0.05% in series [4] (40 ± 2° C. 75 ± 5% RH, Initial). In addition, the “Related substances by HPLC: Dezacetyl impurity” value is reported as under 0.05% in series [4] (25 ± 2° C. 60 ± 5% RH, 1 month); under 0.05% in series [4] (setting [5]); under 0.05% in series [4] (setting [6]); under 0.05% in series [4] (setting [7]); under 0.05% in series [4] (25 ± 2° C. 60 ± 5% RH, Initial); under 0.05% in series [4] (40 ± 2° C. 75 ± 5% RH, 1 month). Also, the “Related substances by HPLC: Dezacetyl impurity” value in series [4] (setting [8]) is reported as under 0.05%; in series [4] (setting [9]) it was under 0.05%; in series [4] (setting [10]) it was under 0.05%; in series [4] (40 ± 2° C. 75 ± 5% RH, Initial) it was under 0.05%. For the same molecule, the “Related substances by HPLC: Sum of impurities” value in series [4] (25 ± 2° C. 60 ± 5% RH, 1 month) was 0.05%; in series [4] (setting [5]), 0.07%; in series [4] (setting [6]) it was under 0.05%; in series [4] (setting [7]), under 0.05%; in series [4] (25 ± 2° C. 60 ± 5% RH, Initial), under 0.05%; in series [4] (40 ± 2° C. 75 ± 5% RH, 1 month), under 0.05%. The “Related substances by HPLC: Sum of impurities” value in series [4] (setting [8]) is given as 0.05%; in series [4] (setting [9]), under 0.05%; in series [4] (setting [10]) it was under 0.05%; in series [4] (40 ± 2° C. 75 ± 5% RH, Initial), under 0.05%. Besides, the “Stability of the base per se on storage” value in series [4] (storage period of 6 months) is on record as “remains stable”.
